Assay results: PMC4898484 (Molecular microbiology, 2015)

Target: Plasmodium falciparum phosphatidylserine decarboxylase (PfPSD) (Plasmodium falciparum, UniProt Q9GPP8)
Assay: radiometric decarboxylase assay
Assay type: biochemical

Chain of Plasmodium falciparum phosphatidylserine decarboxylase (PfPSD) (Q9GPP8 41-315): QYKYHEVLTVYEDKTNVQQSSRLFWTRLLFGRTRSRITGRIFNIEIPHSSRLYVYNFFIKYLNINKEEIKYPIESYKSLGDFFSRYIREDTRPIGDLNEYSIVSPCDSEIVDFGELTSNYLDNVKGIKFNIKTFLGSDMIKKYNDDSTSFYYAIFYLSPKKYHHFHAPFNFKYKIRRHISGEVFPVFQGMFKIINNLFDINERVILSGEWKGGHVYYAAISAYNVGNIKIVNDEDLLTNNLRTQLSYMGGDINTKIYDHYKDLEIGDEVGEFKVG
Chain of Plasmodium falciparum phosphatidylserine decarboxylase (PfPSD) (Q9GPP8 316-362): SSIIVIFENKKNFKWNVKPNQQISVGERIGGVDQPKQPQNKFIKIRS

CCCc1ccc(Nc2ccnc3cc(Cl)ccc23)cc1 [7CPQA, 7-chloro-N-(4-propylphenyl)-4-quinolinamine]
IC50: 10 to 100 µM
